Data set [1] relates to p70-S6K1-pT389 (mTORC1 substrate). Nature of the data set: Immunoblot of mTORC1 substrate p70-S6K1-pT389 after insulin/aa induction. It counts as cell-based. As to conditions: astrin knockdown, insulin and aa 10 minutes; Rapamycin 100 nM, PP242 250 nM. The procedure: Experiments were performed in HeLa α Kyoto cells, and BT474, MDA-MB-231, MDA-MB-453, T-47D, MCF-7 breast cancer cell lines. […] Cultivation of breast cancer cell lines T-47D, BT474, MDA-MB-231 and MDA-MB-453 was done in the following media: RPMI (PAA, Pasching, Austria) supplemented with 100 nM insulin. MCF7 cells were cultivated in RPMI (PAA, Pasching, Austria). Insulin/aa induction was done as described (Sonntag et al., 2012). Prior to stress induction with 500 μM Arsenite or 2 mM H2O2, cells were starved for 16 h in DMEM without Glucose and fetal calf serum (PAA, Pasching, Austria) supplemented with 1.5% L-glutamine.
Stress granules were analysed after 30 min. stress induction. Apoptosis was analysed after 1-3 hours stress induction. Inhibitors were obtained from Calbiochem, Merck KGaA, Darmstadt, Germany and Sigma Aldrich, St. Louis, USA; dissolved in DMSO, and applied 30 min. prior to all induction regimens, at the following concentrations: Rapamycin (100 nM), PP242 (250 nM), Wortmannin (200 nM), Cycloheximide (2 μg/mL); HeLa cells were synchronized with Nocodazole (400 ng/mL) and subsequent mitotic shake off at G2/M, and released as described (Thein, K. H., Kleylein-Sohn, J., Nigg, E. A., and Gruneberg, U. (2007). Astrin is required for the maintenance of sister chromatid cohesion and centrosome integrity. J Cell Biol 178, 345-354). […]

The test system of data set [2] is oral squamous carcinoma cell lines. As to conditions: cited from earlier work.

As to `CC(C)n1nc(-c2cc3cc(O)ccc3[nH]2)c2c(N)ncnc21` [PP242], the “p70-S6K1-pT389 in astrin deficient cells” value in data set [1] is listed as “potently inhibited”.

With `CCCCCCCC/C=C\CCCCCCCCCCCCOP(=O)([O-])OCC[N+](C)(C)C` [Erufosine], in data set [2], the cytotoxicity entry was “dose-dependent cytotoxicity in all cell lines”.

The record behind these values is patent publication US10041933B2, “Modulators of the interaction of astrin and raptor, and uses thereof in cancer therapy” (ALBERT-LUDWIGS-UNIVERSITÄT FREIBURG, priority 2013, dated 2018).
